Assay results published in patent US12622899B2 (PureTech LYT 100, Inc., priority 2018, dated 2026).

Legend:
[1] = target: T1, CYP2C19 (Homo sapiens, UniProt P33261); experiment: In vitro stability with recombinant human CYP2C19; assay type: in vitro ADME; details: recombinant human isozyme; read-out: t1/2 following incubation with CYP2C19 (converted)
T1 construct: host or cells: heterologous cell systems (not specified)
Protocol: The half-life (t½) of each test article was determined.

[2] = test system: patients with Idiopathic Pulmonary Fibrosis (IPF); experiment: IPF trial Part A: clinical laboratory parameters, liver; assay type: in vivo, human
[3] = test system: patients with Idiopathic Pulmonary Fibrosis (IPF); experiment: IPF trial Part A (26-week double-blind): efficacy, FVC and FVCpp, time to progression; assay type: in vivo, human; details: for FVC, Bayesian Posterior Mean Difference vs. Placebo / FVC, Frequentist Adjusted Mean Difference vs. Placebo / FVCpp, Bayesian Posterior Mean comparison vs. Placebo / FVCpp, Frequentist Adjusted Mean comparison vs. Placebo / Treatment effect, FVC, versus placebo / Treatment effect, FVCpp, versus placebo: 26 weeks
Protocol: The primary objective was to determine the dose(s) to carry into Phase 3. […] Patients were randomized to one of the four treatments in a 1:1:1:1 ratio and stratified based on prior exposure to nintedanib (<6 months) versus nintedanib-naïve patients. Patients who completed the Double-blind Treatment Period (Part A) were offered participation in the Long-term Extension (Part B). […] For patients who participated in Part B, the follow-up was conducted at the end of Part B. A graphical illustration of an embodiment of the trial design is provided as FIG. 24B.
Doses were adjusted according to safety and tolerability to avoid toxicity.
Note that, for all treatment groups, the first 7 days of treatment, one capsule was taken TID., Day 8 through Day 14, two capsules TID., and Day 15 forward, 3 capsules TID.
Weekly home FVC was assessed with an individual spirometer, which was supplied to each patient. The site used its own equipment for in-clinic FVC assessments. Spirometry measurements were performed according to the American Thoracic Society/European Respiratory Society (“An Official American Thoracic Society and European Respiratory Society Technical Statement Technical Statement” Am J Respir Crit Care Med. 2019; 200(8):e71-e83) and the study specific Pulmonary Function Manual, at timepoints specified in the Schedule of Assessments. Spirometry was conducted while the patient was in a seated position. The test was done in order to achieve three acceptable FVC measurements (three curves to be provided), and the best result selected according to the guidelines. The best of three efforts was defined as the highest FVC, obtained on any of the three blows meeting the ATS/ERS/JRS/ALAT 2019 criteria (Graham et al, 2019) with preferably a maximum of eight attempts.
Pulmonary function was measured in a standardized manner and results transmitted electronically during the visit immediately after performing the spirometry and evaluated by a central reader. In case the acceptability and repeatability criteria as specified by ATS/ERS/JRS/ALAT guidelines were not met, a repeat spirometry was performed during the same visit.
The primary efficacy endpoint was the rate of decline in FVC mL over 26 weeks. In addition, decline in FVC % predicted from baseline to Week 26 and by >10% and >5% was assessed.
The secondary endpoint was comparison of FVC % predicted change from baseline to Week 26.
The following parameters were measured or calculated as part of the spirometry assessment: • FVC (mL) and FVC % predicted (FVCpp) • FEV1 (mL) and percent predicted forced expiratory volume in 1 second (FEV1% p) • FEV1/FVC ratio • Forced expiratory flow between 25% and 75% of exhaled volume (FEF25-75) The ‘2012 Global Lung Function Initiative Equations’ was used to calculate the predicted values (Quanjer et al, “Multi-ethnic reference values for spirometry for the 3-95 year age range: the global lung function 2012 equations: Report of the Global Lung Function Initiative (GLI), ERS Task Force to establish improved Lung Function Reference Values.,” Eur Respir J, vol. 40(6), pp. 1324-1343, 2012). […]

[4] = deupirfenidone 550 mg TID, N=65
[5] = deupirfenidone 825 mg TID, N=63
[6] = deupirfenidone 825 mg TID, N=63, listed as Deupirfenidone
[7] = deupirfenidone 825 mg TID, N=63, listed as deupirfenidone

T1 sequence (P33261 whole entry): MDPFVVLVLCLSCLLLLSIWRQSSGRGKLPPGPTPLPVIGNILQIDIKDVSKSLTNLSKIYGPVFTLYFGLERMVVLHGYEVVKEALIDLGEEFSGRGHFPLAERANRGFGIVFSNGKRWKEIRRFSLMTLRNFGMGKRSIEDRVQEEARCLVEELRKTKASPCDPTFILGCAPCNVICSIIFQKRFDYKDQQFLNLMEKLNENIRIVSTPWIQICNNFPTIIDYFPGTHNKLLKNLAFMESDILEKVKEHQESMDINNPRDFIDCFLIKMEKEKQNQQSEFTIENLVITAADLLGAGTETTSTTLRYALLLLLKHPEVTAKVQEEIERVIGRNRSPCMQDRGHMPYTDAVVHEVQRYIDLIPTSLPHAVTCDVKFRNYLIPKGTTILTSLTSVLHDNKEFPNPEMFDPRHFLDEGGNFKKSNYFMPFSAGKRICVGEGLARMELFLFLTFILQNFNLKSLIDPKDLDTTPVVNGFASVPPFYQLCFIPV

SMILES: [2H]C([2H])([2H])c1ccc(=O)n(-c2ccccc2)c1 [LYT-100, 5-(methyl-d3)-1-phenylpyridin-2-(1H)-one]
- half-life [1]: 3.67 h
- liver enzyme elevations, drug-induced liver injury ([2]; IPF Part A): no instances of drug-induced liver injury or Hy's Law
- Alanine Aminotransferase (U/L) at Worst Post-Baseline, 3-5 ULN ([2]; TID Pooled (N = 129), N1 120): 2 (1.7) n (%)
- Alanine Aminotransferase (U/L) at Worst Post-Baseline, 5-8 ULN ([2]; TID Pooled (N = 129), N1 120): 1 n (%)
- Alanine Aminotransferase (U/L) at Worst Post-Baseline, >8 ULN ([2]; TID Pooled (N = 129), N1 120): 2 n (%)
- Alanine Aminotransferase (U/L) at Worst Post-Baseline, Total (>3 ULN) ([2]; TID Pooled (N = 129), N1 120): 5 (4.2) n (%)
- Alanine Aminotransferase or Aspartate Aminotransferase (U/L) at Worst Post-Baseline, 3-5 ULN ([2]; TID Pooled (N = 129), N1 120): 2 (1.7) n (%)
- Alanine Aminotransferase or Aspartate Aminotransferase (U/L) at Worst Post-Baseline, 5-8 ULN ([2]; TID Pooled (N = 129), N1 120): 1 n (%)
- Alanine Aminotransferase or Aspartate Aminotransferase (U/L) at Worst Post-Baseline, >8 ULN ([2]; TID Pooled (N = 129), N1 120): 2 n (%)
- Alanine Aminotransferase or Aspartate Aminotransferase (U/L) at Worst Post-Baseline, Total (>3 ULN) ([2]; TID Pooled (N = 129), N1 120): 5 (4.2) n (%)
- Aspartate Aminotransferase (U/L) at Worst Post-Baseline, 3-5 ULN ([2]; TID Pooled (N = 129), N1 120): 2 (1.7) n (%)
- Aspartate Aminotransferase (U/L) at Worst Post-Baseline, 5-8 ULN ([2]; TID Pooled (N = 129), N1 120): 0 n (%)
- Aspartate Aminotransferase (U/L) at Worst Post-Baseline, >8 ULN ([2]; TID Pooled (N = 129), N1 120): 2 n (%)
- Aspartate Aminotransferase (U/L) at Worst Post-Baseline, Total (>3 ULN) ([2]; TID Pooled (N = 129), N1 120): 4 (3.3) n (%)
- FVC, Bayesian Posterior Mean Difference vs. Placebo ([3]; deupirfenidone 550 mg TID): 34.1 mL
- FVC, Frequentist Adjusted Mean Difference vs. Placebo ([3]; deupirfenidone 550 mg TID): 31.8 mL
- FVCpp, Bayesian Posterior Mean comparison vs. Placebo ([3]; deupirfenidone 550 mg TID): 1.47
- FVCpp, Frequentist Adjusted Mean comparison vs. Placebo ([3]; deupirfenidone 550 mg TID): 1.62
- Treatment effect, FVC, versus placebo ([3]; deupirfenidone 550 mg TID): 28.3%
- Treatment effect, FVCpp, versus placebo ([3]; deupirfenidone 550 mg TID): 47.2%
- FVC, Bayesian Posterior Mean Difference vs. Placebo ([3]; deupirfenidone 825 mg TID): 90.9 mL
- FVC, Frequentist Adjusted Mean Difference vs. Placebo ([3]; deupirfenidone 825 mg TID): 91.0 mL
- FVCpp, Bayesian Posterior Mean comparison vs. Placebo ([3]; deupirfenidone 825 mg TID): 2.85
- FVCpp, Frequentist Adjusted Mean comparison vs. Placebo ([3]; deupirfenidone 825 mg TID): 3.00
- Treatment effect, FVC, versus placebo ([3]; deupirfenidone 825 mg TID): 80.9%
- Treatment effect, FVCpp, versus placebo ([3]; deupirfenidone 825 mg TID): 87.5%
- Treatment effect, FVC, versus placebo ([3]; deupirfenidone 825 mg TID, listed as Deupirfenidone): 80.9%
- Treatment effect, FVC, versus placebo ([3]; deupirfenidone 825 mg TID, listed as deupirfenidone): 80.9%
- 6-month FVC decline compared with healthy older adults ([3]; LYT-100 825 mg TID (FIG. 45)): in line with that seen for healthy adults >60 years
- Cohen's D, FVC ([3]; deupirfenidone 550 mg TID): 0.14
- Cohen's D, FVCpp ([3]; deupirfenidone 550 mg TID): 0.23
- Change from Baseline in FVC over 26 Weeks, Bayesian Posterior Mean (SE) [3, 4]: −76.7 (28.60) mL
- Change from Baseline in FVC over 26 Weeks, Frequentist Adjusted Mean (SE) [3, 4]: −80.7 (29.32) mL
- Change from Baseline in FVCpp over 26 Weeks, Bayesian Posterior Mean (SE) [3, 4]: −1.80 (0.88)
- Change from Baseline in FVCpp over 26 Weeks, Frequentist Adjusted Mean (SE) [3, 4]: −1.81 (0.886)
- Cohen's D, FVC ([3]; deupirfenidone 825 mg TID): 0.40
- Cohen's D, FVCpp ([3]; deupirfenidone 825 mg TID): 0.44
- Change from Baseline in FVC over 26 Weeks, Bayesian Posterior Mean (SE) [3, 5]: −19.9 (28.29) mL
- Change from Baseline in FVCpp over 26 Weeks, Bayesian Posterior Mean (SE) [3, 5]: −0.42 (0.88)
- Change from Baseline in FVC over 26 Weeks, Frequentist Adjusted Mean (SE) [3, 6]: −21.5 (28.86) mL
- Change from Baseline in FVCpp over 26 Weeks, Frequentist Adjusted Mean (SE) [3, 6]: −0.43 (0.872)
- Change from Baseline in FVC over 26 Weeks, Frequentist Adjusted Mean (SE) [3, 7]: -21.5 mL
- Change from Baseline in FVCpp over 26 Weeks, Frequentist Adjusted Mean (SE) [3, 7]: −0.43
